Assay results published in PMC8851282, “Senolysis induced by 25-hydroxycholesterol targets CRYAB in multiple cell types” (iScience, 2022).

How the values were obtained:
[1] = test system: CRYAB; parameters: method as in Makley et al., 2015; conditions: ref Makley et al., 2015; cited from earlier work
[2] = test system: 15-d-PGJ2; assay: 15-d-PGJ2 ELISA in urine of Doxo-treated mice given 25HC; type: in vivo, mouse; conditions: urine collected after the first treatment with 25HC 50 mg/kg i.p. (24 h per Figure 8, 12 hr per methods)
Procedure: Figure 8 25HC induces senolysis in vivo in Doxo-treated mice (A) Timeline of 25HC treatment in Doxo-treated mice. Mice were given 4 mg/kg Doxo or PBS for 5 daily injections[A1], then injected with 25HC or vehicle for 7 consecutive days. (B) Mass of gastrocnemius muscles. Muscle weight was normalized to body weight. (C) Cdkn2a and Cryab mRNA levels in gastrocnemius (Gastroc) and soleus (Sol) muscles. RNA was collected 28–30 d after the first treatment with Doxo. mRNA levels were quantified by qRT-PCR, and normalized to actin mRNA levels. The average value of PBS-vehicle was set at 1. (D) 15-d-PGJ2 analysis in urine. […]
Male C57BL/6J mice (3–4 months old) were purchased from the Jackson Laboratory. […] Senescence markers p16^INK4a, p21^Cip1 and CRYAB expression was analyzed on gastrocnemius (Gastroc), soleus (So), tibialis anterior (TA), visceral fat (VF), kidney (Ki), liver (Li), lung (Lu), heart (He), and skin (Sk) samples by qRT-PCR.
Urine was collected at 12 or 24 h after the first treatment with 25HC or vehicle and diluted 10-fold with assay buffer. The amount of 15-d-PGJ2 was measured using a 15-deoxy-Δ^12,14-PGJ2 ELISA kit according to manufactures’ protocol (Enzo Life Sciences).

[3] = test system: SARS-CoV-2; parameters: method as in Wang et al., 2020; Zang et al., 2020; Zu et al., 2020; conditions: by depleting membrane cholesterol, ref Wang et al., 2020, Zang et al., Zu et al.; cited from earlier work
[4] = test system: human articular chondrocytes (hAC); assay: Cell viability assay of NS and Doxo- or IR-induced senescent hACs treated with 25HC; type: cell-based; conditions: 11.1 μM after 12 days; Doxo or IR induced senescence
Procedure: Figure 7 25HC treatment timeline and its effects on NS and SEN hCMECs, hLSCs, hRPTECs, and hACs All cell types were treated with either DMSO, 250 nM Doxo or 10-Gy IR at the times shown. 25HC treatment was started 24 h after Doxo or IR treatment. Cell viability was measured every 3–5 days for 15 days. Optimal treatment times for maximum senolysis are shown for each cell type: day 15 for hCMECs, day 3 for hLSCs, day 9 for hRPTECs and day 12 for hACs. For qRT-PCR: mean ± SE, n =4, ∗p< 0.05, ∗∗p< 0.01, ∗∗∗p<0.001, ∗∗∗∗p<0.0001 by Dunnett’s multiple comparisons test vs DMSO or NS, For cell viability assays: mean ± SE, n =3, ∗∗p< 0.01, ∗∗∗p<0.001, ∗∗∗∗p<0.0001 vs 0 mM by student’s t test.
All experiments were performed in incubators at 37 °C, 3% O2 and 5% CO2. Senescence was induced by treatment with either Doxo (250 nM for 24 h) ([Demaria et al., 2017]) or X-irradiation (10 Gy) ([Limbad et al., 2020]). […]
Cell viability was assessed using a cell counting kit-8 from Dojindo Molecular Technologies, Inc (Cat CK04-20). […] The supernatant was transferred to a new 96-well plate and absorbance read at 450 nm as recommended in the product datasheet. […]
Cells were treated with DMSO or 250 nM Doxo for 24 h. […] Cell viability was measured every 3–5 days until 15 days. […] Cell viability was measured every 3–5 days until 15 days. […]

## C[C@H](CCCC(C)(C)O)[C@H]1CC[C@H]2[C@@H]3CC=C4C[C@@H](O)CC[C@]4(C)[C@H]3CC[C@]12C [25HC, 25-hydroxycholesterol]
[1]
  CRYAB aggregation: blocks CRYAB aggregation
[2]
  15-d-PGJ2 levels in urine: increased significantly
[3]
  SARS-CoV-2 replication: inhibits SARS-CoV-2 replication
[4]
  senolysis in hACs: induced significant senolysis
